We go through twelve molecules from US12054560B2, “Bifunctional molecules recruiting antibodies and targeting cancer cells” (JIANGNAN UNIVERSITY, priority 2017, dated 2024).

Square brackets hold non-standard residues; d marks the D form. Primed or numbered codes have the meaning given here. Side chains are listed from the residue outwards. oligo‑glycol (n:2) = oligo-glycol tether (n=2) linking D-Lys(N3) to alkynyl rhamnose by click reaction; oligo‑glycol (n:5) = oligo-glycol tether (n=5) linking D-Lys(N3) to alkynyl rhamnose by click reaction; dLys(N3)′ = its azide, alkyne or alkene has reacted where a group follows in round brackets; rhamnose derivative = not defined here; click linkage = not defined here; pGlu = O=C1CC[C@@H](C(=O)O)N1

In experiment [1] the test system is MCF7 cells (LHRH-R positive). Put plainly: Flow cytometry, recruitment of anti-Rha antibody on MCF7 cells. In kind it is cell-based. As to conditions: 250 nM, anti-Rha antibody 20 μg/mL, FIG. 7. On the procedure: (§1) Commercialized MCF7 cells (LHRH-R positive) and UCI-107(LHRH-R negative) were grown in DMEM supplemented with 10% FBS, 1% penicillin-streptomycin. All cells were cultured at 37° C. in a 5% CO2 humidified atmosphere.
(1) Cells were cultured and detached with trypsin-EDTA and then resuspended to 1.0×10^5 cells/mL. Forty thousand of these cells were added into sterile centrifuge tubes. (2) LHRH, LHRH-Rha, LHRH-TEG-Rha and LHRH-HEG-Rha compounds were added at a final concentration of 250 nM. For the blank group (Negative), the corresponding volume of PBS was added. And anti-Rha antibody at a final concentration of 20 μg/mL in all groups. These cells were incubated on ice for 60 min, washed with flow cytometry buffer. And fluorescent secondary antibody was immediately added in all groups. These cells were incubated on ice for 30 min, (3) washed with flow cytometry buffer and then analyzed using an Accuri C6 flow cytometer.

Experiment [2] relates to MCF7 cells (LHRH-R positive). Put plainly: ADCC experiment on MCF7 cells. The experiment is classed as cell-based. As to conditions: MCF-7 cells, 250 nM, anti-Rha antibody, PBMC, LDH method, FIG. 7. On the procedure: as §1
(1) MCF7 or UCI-107 cells were seeded in 96-well plates at a concentration of 10,000 cells/well and then treated with LHRH, LHRH-Rha, LHRH-TEG-Rha and LHRH-HEG-Rha at a final concentration of 250 nM and a certain concentration of anti-Rha antibody. (2) Following the incubation period, freshly extracted PBMC cells were added at a certain effective target ratio, (3) and the supernatant was treated by centrifugation for minutes, using LDH method to measure the cytotoxicity.

Experiment [3] concerns MCF7 cells (LHRH-R positive). Put plainly: CDC experiment on MCF7 cells. The conditions noted are these: MCF-7 cells, 250 nM, anti-Rha antibody, 10% rabbit complement, cck8 kit, FIG. 7. The experiment is classed as cell-based. On the procedure: as §1
(1) MCF7 cells or UCI-107 were seeded in 96-well plates at a concentration of 5000 cells/well and then treated with LHRH, LHRH-Rha, LHRH-TEG-Rha and LHRH-HEG-Rha at a final concentration of 250 nM and a certain concentration of anti-Rha antibody. Following the incubation at 37° C. for 2 h, next, diluted rabbit complement at a final concentration of 10% were added to each well. Following the incubation at 37° C. for 1 h, the results detected using cck8 kit.

In experiment [4] the test system is HEK-293 cells. Put plainly: ADCC assay on HEK-293 cells. The experiment is classed as cell-based. As to conditions: 250 nM, anti-DNP antibody, PBMC, LDH method, FIG. 11. As to the method:
ADCC assay implementation: (1) HEK-293, SKOV-3, HT-29 cells were seeded in 96-well plates at a concentration of 10,000 cells/well. After the cells were fully attached, added with RGD analogues (SEQ ID NO:9), RGD-DNP and RGD-linker-DNP compounds at a final concentration of 250 nM and immediately added a certain concentration of anti-DNP antibody. (2) After incubation for a period of time, freshly extracted PBMC cells were added at a certain effect target ratio for a certain period of time. (3) The supernatant was removed by centrifugation, and cytotoxicity was measured by the LDH method.

The test system of experiment [5] is HT-29 (high expression of integrin αvβ5). Put plainly: Flow cytometry on HT-29 cells. In kind it is cell-based. As to conditions: FIG. 11. As to the method:
(§2) Cell assay implementation: cell culture: commercial cells HEK-293 (high expression of integrin αvβ3), SKOV-3 (high expression of integrin αvβ3, αvβ 5), and HT-29 (high expression of integrin αvβ5) was cultured in DMEM complete medium. All cell culture conditions were 37° C., 5% CO2. Flow cytometry assay: (1) The cells were digested with trypsin, resuspended in flow medium diluted to 1×10^5 cells. 400 μL of cells (40,000 cells) were added to a sterile EP tube. (2) RGD analogues (SEQ ID NO:9), RGD-DNP and RGD-linker-DNP compounds were added […], incubate on ice for 1 h. Then the cells were washed and incubated with fluorescent secondary antibody for 0.5 h. (3) the cells were thoroughly washed gently with a flow buffer, resuspended, and analyzed by instruments.

Experiment [6] deals with HEK-293 (high expression of integrin αvβ3). Put plainly: Flow cytometry on HEK-293 cells. In kind it is cell-based. As to conditions: FIG. 11. On the procedure: as §2
For orientation: In flow cytometry, cells or beads pass a laser one at a time.

For experiment [7], the system named is SKOV-3 (high expression of integrin αvβ3, αvβ 5). Put plainly: Flow cytometry on SKOV-3 cells. In kind it is cell-based. The conditions noted are these: FIG. 11. As to the method:
as §2

Experiment [8] has as its system HEK-293 cells. Put plainly: CDC assay on HEK-293 cells. As to conditions: 250 nM, anti-DNP antibody, 10% complement, cck8 method, FIG. 11. In kind it is cell-based. On the procedure:
CDC assay implementation: (1) HEK-293, SKOV-3, HT-29 cells were seeded in 96-well plates at a concentration of 5,000 cells/well. After the cells were fully attached, added with RGD analogues (SEQ ID NO:9), RGD-DNP and RGD-linker-DNP compounds at a final concentration of 250 nM and added a certain concentration of anti-DNP antibody at the same time. After 2 hours of incubation at 37° C., a final concentration of 10% of the complement solution was added and incubated for 1 hour at 37° C. After the incubation, the cell viability was measured by the cck8 method.

The target in experiment [9] is T1, LHRH-R (UniProt P30968 1-328).
T1 sequence (looked up): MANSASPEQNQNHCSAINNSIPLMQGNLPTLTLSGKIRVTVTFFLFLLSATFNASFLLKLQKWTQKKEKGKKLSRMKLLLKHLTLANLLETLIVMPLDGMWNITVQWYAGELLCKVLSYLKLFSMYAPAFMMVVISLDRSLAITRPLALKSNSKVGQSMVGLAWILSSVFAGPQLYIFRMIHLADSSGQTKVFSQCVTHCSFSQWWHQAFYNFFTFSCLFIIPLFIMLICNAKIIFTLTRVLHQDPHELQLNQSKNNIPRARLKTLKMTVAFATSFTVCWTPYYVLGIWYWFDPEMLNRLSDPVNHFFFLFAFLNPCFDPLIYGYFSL
Put plainly: cell-based or functional assay.

The subject of experiment [10] is SKBR3 cells. Put plainly: CDC assay on SKBR3 cells. The experiment is classed as cell-based. As to conditions: 20% normal human serum, cck8 kit, FIG. 6(B). On the procedure: (§3) SKBR3 (HER2 positive) and MCF7 cells (HER2 negative) were grown in DMEM supplemented with 10% FBS, 1% penicillin-streptomycin. All cells were cultured at 37° C. in a 5% CO2 humidified atmosphere.
(1) SKBR3 cells were seeded in 96-well plates at a concentration of 5000 cells/well and (2) then treated with C7b and Rhaconjugated C7b in the presence of 20% normal human serum (the source of anti-Rha IgG and complement). (3) Following the incubation period, the results detected using cck8 kit.

Experiment [11] deals with SKBR3 cells. Put plainly: ADCC assay on SKBR3 cells. The experiment is classed as cell-based. The conditions noted are these: rabbit anti-Rha IgG, human peripheral blood mononuclear cells, LDH kit, FIG. 6(A). On the procedure: as §3
(1) SKBR3 cells were seeded in 96-well plates at a concentration of 10,000 cells/well and then treated with C7b and Rha conjugated C7b in the presence of rabbit anti-Rha IgG antibodies. (2) Next, freshly isolated human peripheral blood mononuclear cells were added to each well. (3) Following the incubation period, the supernatant was transferred onto a new black 96-well and detected using LDH kit.

Experiment [12] has as its target T2, HER2 (UniProt P04626 23-1255, limits assumed).
T2 construct: whole, on cells; also called human epidermal growth factor receptor 2; HER2 (on SKBR3 cells)
Put plainly: flow cytometry on SKBR3 cells at 250 nM, detected with Alexa 488 rabbit anti-Rha IgG.

Consider “LHRH-HEG-Rha: [6-D-Lys(N3)]-LHRH peptide click-coupled to rhamnose derivative, oligo-glycol linker n=5 ([pGlu]HWSY[dLys(N3)′]([click linkage-oligo‑glycol n:5-rhamnose derivative])LRPG-NH2; reading uncertain; also: rhamnose derivative attached via click (triazole) to D-Lys6, oligo-glycol n=5, structure in drawing)”, for which, in experiment [1], the “recruitment of anti-Rha antibodies to MCF-7 tumor cells” value (shortened to “recruitment of anti-Rha antibodies”) is recorded as “could recruit anti-Rha antibodies”. In addition, the ADCC-mediated killing rate entry in experiment [2] was “about 33%”. Besides, the CDC-mediated killing rate result in experiment [3] is “about 26%”.

For “LHRH-Rha: [6-D-Lys(N3)]-LHRH peptide click-coupled to rhamnose derivative, oligo-glycol linker n=0 ([pGlu]HWSYKLRPG-NH2; not fully specified (residue 6); printed as Glp-His-Trp-Ser-Tyr-D-Lys(N3)-Leu-Arg-Pro-Gly-NH2; also: rhamnose derivative attached via click (triazole) to D-Lys6, oligo-glycol n=0, structure in drawing)”, the “recruitment of anti-Rha antibodies” value in [1] is “could recruit anti-Rha antibodies”. For the same molecule, in experiment [2], the ADCC-mediated killing rate result is listed as “about 33%”. For the same molecule, the CDC-mediated killing rate result in experiment [3] is “about 26%”.

Regarding “LHRH-TEG-Rha: [6-D-Lys(N3)]-LHRH peptide click-coupled to rhamnose derivative, oligo-glycol linker n=2 ([pGlu]HWSY[dLys(N3)′]([click linkage-oligo‑glycol n:2-rhamnose derivative])LRPG-NH2; reading uncertain; also: rhamnose derivative attached via click (triazole) to D-Lys6, oligo-glycol n=2, structure in drawing)”, the “recruitment of anti-Rha antibodies” value in experiment [1] is “could recruit anti-Rha antibodies”. In [2], the ADCC-mediated killing rate entry is reported as “about 33%”. For the same molecule, in [3], the CDC-mediated killing rate entry is “about 26%”.

The molecule “RGD-DNP: DNP coupled to cyclic RGD analogue Cyclo-(DFKRG), short connecting arm (cyclo(DFKRG); also: DNP conjugated (site only in drawing))” registered an ADCC kill rate in experiment [4] of 18%. In addition, the binding to cells entry in [5], in experiment [6] and in experiment [7] was “can bind” in each case. The molecule also returned a CDC kill rate in experiment [8] of 21%.

Consider “RGD-linker-DNP: DNP coupled through a linker to cyclic RGD analogue Cyclo-(DFKRG), long connecting arm (cyclo(DFKRG); also: DNP conjugated via long linker (site only in drawing))”, for which, in experiment [4], the ADCC kill rate came out at 38%. For the same molecule, the binding to cells entry in experiment [5], in experiment [6] and in experiment [7] was “can bind” in each case. This molecule also displayed a CDC kill rate in [8] of 42%.

Consider [pGlu]HWSY[dLys(N3)′]([oligo‑glycol (n:5)-rhamnose])LRPG-NH2 [LHRH-HEG-Rha], for which, in experiment [9], the ADCC-mediated killing rate was around 33% and the CDC-mediated killing rate is around 26%.

In the case of [pGlu]HWSY[dLys(N3)′]([oligo‑glycol (n:2)-rhamnose])LRPG-NH2 [LHRH-TEG-Rha], in experiment [9], the ADCC-mediated killing rate is around 33% and the CDC-mediated killing rate is around 26%.

B1: C7b-triEGRha: nanobody C7b linked by SrtA to small molecule GGG-triEGRha (conjugate)
VHH: MQVQLVQSGGGLVQAGGSLRLSCAASGRTFSSYAMAWFRQAPGKEREFVAAISWSGANIYVADSVKGRFTISRDNAKDTVYLQMNSLKPEDTAVYYCAVKLGFAPVEERQYDYWGQGTQVTVSSLPETGG
B1: the CDC efficacy in experiment [10] was found to be 36%. The molecule also showed an ADCC efficacy in experiment [11] of 32%.

B2: C7b-hexEGRha: nanobody C7b linked by SrtA to small molecule GGG-hexEGRha (conjugate)
VHH: B1 VHH
Molecule B2 returned a CDC efficacy in experiment [10] of 47%. In [11], the ADCC efficacy stood at 43%.

With [pGlu]HWSY[dLys(N3)′](rhamnose)LRPG-NH2 [LHRH-Rha], in [9], the ADCC-mediated killing rate was around 33% and the CDC-mediated killing rate was around 26%.

B3: C7b-triEGRha (VHH)
VHH: QVQLVQSGGGLVQAGGSLRLSCAASGRTFSSYAMAWFRQAPGKEREFVAAISWSGANIYVADSVKGRFTISRDNAKDTVYLQMNSLKPEDTAVYYCAVKLGFAPVEERQYDYWGQGTQVTVSS
modifications: C-terminal LPETGG motif ligated by sortase A (enhanced SrtA) to GGG-triEGRha (triethylene glycol-rhamnose)
notes: also called Rha conjugated C7b
On to B3, for which the binding result in experiment [12] was “binds”.

B4: C7b-hexEGRha (VHH)
VHH: B3 VHH
modifications: C-terminal LPETGG motif ligated by sortase A (enhanced SrtA) to GGG-hexEGRha (hexaethylene glycol-rhamnose)
notes: as for B3
As for B4, the binding result in experiment [12] was “binds”.
